Data published in patent US11299461B2 (priority 2018, dated 2022).

Biological target: LF 263-C catalytic domain (anthrax lethal factor) (Bacillus anthracis, UniProt P15917)
Assay: biochemical

LF 263-C catalytic domain (anthrax lethal factor), sequence (P15917 296-809 limits assumed): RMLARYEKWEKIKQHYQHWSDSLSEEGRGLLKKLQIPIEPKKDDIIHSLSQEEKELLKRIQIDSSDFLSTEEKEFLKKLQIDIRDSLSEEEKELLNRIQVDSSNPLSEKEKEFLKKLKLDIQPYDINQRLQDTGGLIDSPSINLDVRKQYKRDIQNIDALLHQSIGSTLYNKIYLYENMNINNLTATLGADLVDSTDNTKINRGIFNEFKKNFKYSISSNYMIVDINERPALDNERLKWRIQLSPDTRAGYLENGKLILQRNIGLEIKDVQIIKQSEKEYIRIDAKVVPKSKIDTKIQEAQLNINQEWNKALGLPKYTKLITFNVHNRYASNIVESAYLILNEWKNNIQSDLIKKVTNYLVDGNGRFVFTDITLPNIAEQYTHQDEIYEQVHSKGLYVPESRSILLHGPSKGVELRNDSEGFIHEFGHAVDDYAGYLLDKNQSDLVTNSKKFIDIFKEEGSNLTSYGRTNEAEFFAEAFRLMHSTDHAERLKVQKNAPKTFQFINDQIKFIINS

SMILES	Ki [nM]
Cc1ccc([C@@H](CO)NCCCC[C@@H](Nc2cc(C)c(F)c(C)c2)C(=O)NO)nc1 [Compound 1, (R)-2-((4-fluoro-3,5-dimethylphenyl)amino)-N-hydroxy-6-(((S)-2-hydroxy-1-(5-methylpyridin-2-yl)ethyl)amino)hexanamide]	0.17
Cc1cc(N[C@H](CCCCN[C@H](CO)c2ccc(F)cn2)C(=O)NO)cc(C)c1F [Compound 2, (R)-2-((4-fluoro-3,5-dimethylphenyl)amino)-6-(((S)-1-(5-fluoropyridin-2-yl)-2-hydroxyethyl)amino)-N-hydroxyhexanamide]	0.14
Cc1cc(N[C@H](CCCCN[C@@H](c2ccc(F)cn2)C(C)C)C(=O)NO)cc(C)c1F [Compound 3, (R)-2-((4-fluoro-3,5-dimethylphenyl)amino)-6-(((R)-1-(5-fluoropyridin-2-yl)-2-methylpropyl)amino)-N-hydroxyhexanamide]	0.2
Cc1cc(N[C@H](CCCCN[C@@H](c2ccc(Cl)cn2)C(C)C)C(=O)NO)cc(C)c1F [Compound 4, (R)-6-(((R)-1-(5-chloropyridin-2-yl)-2-methylpropyl)amino)-2-((4-fluoro-3,5-dimethylphenyl)amino)-N-hydroxyhexanamide]	0.45
CC[C@@H](NCCCC[C@@H](Nc1cc(C)c(F)c(C)c1)C(=O)NO)c1ncc(F)cc1F [Compound 5, (R)-6-(((R)-1-(3,5-difluoropyridin-2-yl)propyl)amino)-2-((4-fluoro-3,5-dimethylphenyl)amino)-N-hydroxyhexanamide]	0.39
Cc1cc(N[C@H](CCCCN[C@@H](c2ncc(F)cc2F)C(C)C)C(=O)NO)cc(C)c1F [Compound 6, (R)-6-(((R)-1-(3,5-difluoropyridin-2-yl)-2-methylpropyl)amino)-2-((4-fluoro-3,5-dimethylphenyl)amino)-N-hydroxyhexanamide]	0.28
Cc1cc(N[C@H](CCCCN[C@H](C)c2ccc(Cl)cn2)C(=O)NO)cc(C)c1F [Compound 7, (R)-6-(((R)-1-(5-chloropyridin-2-yl)ethyl)amino)-2-((4-fluoro-3,5-dimethylphenyl)amino)-N-hydroxyhexanamide]	0.35
CC[C@@H](NCCCC[C@@H](Nc1cc(C)c(F)c(C)c1)C(=O)NO)c1ccc(F)cn1 [Compound 8, (R)-2-((4-fluoro-3,5-dimethylphenyl)amino)-6-(((R)-1-(5-fluoropyridin-2-yl)propyl)amino)-N-hydroxyhexanamide]	0.57
Cc1cc(C[C@H](CCCCNCc2ccccn2)C(=O)NO)cc(C)c1F [Compound 9, (S)-2-(4-fluoro-3,5-dimethylbenzyl)-N-hydroxy-6-((pyridin-2-ylmethyl)amino)hexanamide]	1
Cc1cc(C[C@H](CCCCN[C@H](C)c2ccc(F)cn2)C(=O)NO)cc(C)c1F [Compound 10, (S)-2-(4-fluoro-3,5-dimethylbenzyl)-6-(((R)-1-(5-fluoropyridin-2-yl)ethyl)amino)-N-hydroxyhexanamide]	0.15
Cc1ccc([C@@H](C)NCCCC[C@@H](Cc2cc(C)c(F)c(C)c2)C(=O)NO)nc1 [Compound 11, (S)-2-(4-fluoro-3,5-dimethylbenzyl)-N-hydroxy-6-(((R)-1-(5-methylpyridin-2-yl)ethyl)amino)hexanamide]	0.08
Cc1cc(C[C@H](CCCCN[C@H](CO)c2ccc(F)cn2)C(=O)NO)cc(C)c1F [Compound 12, (S)-2-(4-fluoro-3,5-dimethylbenzyl)-6-(((S)-1-(5-fluoropyridin-2-yl)-2-hydroxyethyl)amino)-N-hydroxyhexanamide]	0.08
Cc1ccc([C@@H](CO)NCCCC[C@@H](Cc2cc(C)c(F)c(C)c2)C(=O)NO)nc1 [Compound 13, (S)-2-(4-fluoro-3,5-dimethylbenzyl)-N-hydroxy-6-(((S)-2-hydroxy-1-(5-methylpyridin-2-yl)ethyl)amino)hexanamide]	0.07
Cc1cc(C[C@H](CCCCN[C@H](C)c2ccc(C(F)(F)F)cn2)C(=O)NO)cc(C)c1F [Compound 14, (S)-2-(4-fluoro-3,5-dimethylbenzyl)-N-hydroxy-6-(((R)-1-(5-(trifluoromethyl)pyridin-2-yl)ethyl)amino)hexanamide]	1.3
CCN(CCCC[C@@H](Cc1cc(C)c(F)c(C)c1)C(=O)NO)[C@H](C)c1ccc(C(F)(F)F)cn1 [Compound 15, (S)-6-(ethyl((R)-1-(5-(trifluoromethyl)pyridin-2-yl)ethyl)amino)-2-(4-fluoro-3,5-dimethylbenzyl)-N-hydroxyhexanamide]	3.6
COc1ccc([C@@H](C)NCCCC[C@@H](Cc2cc(C)c(F)c(C)c2)C(=O)NO)nc1 [Compound 16, (S)-2-(4-fluoro-3,5-dimethylbenzyl)-N-hydroxy-6-(((R)-1-(5-methoxypyridin-2-yl)ethyl)amino)hexanamide]	0.31
CCN(CCCC[C@@H](Cc1cc(C)c(F)c(C)c1)C(=O)NO)[C@H](C)c1ccc(OC)cn1 [Compound 17, (S)-6-(ethyl((R)-1-(5-methoxypyridin-2-yl)ethyl)amino)-2-(4-fluoro-3,5-dimethylbenzyl)-N-hydroxyhexanamide]	4.5

SMILES	Ki [nM]
Cc1cc(C[C@H](CCCCN(C)Cc2ccc(F)cn2)C(=O)NO)cc(C)c1F [Compound 18, (S)-2-(4-fluoro-3,5-dimethylbenzyl)-6-(((5-fluoropyridin-2-yl)methyl)(methyl)amino)-N-hydroxyhexanamide]	1.6
COc1ccc(CN(C)CCCC[C@@H](Cc2cc(C)c(F)c(C)c2)C(=O)NO)nc1 [Compound 19, (S)-2-(4-fluoro-3,5-dimethylbenzyl)-N-hydroxy-6-(((5-methoxypyridin-2-yl)methyl)(methyl)amino)hexanamide]	1.4
Cc1cc(C[C@H](CCCCNC(C)(C)c2ccc(F)cn2)C(=O)NO)cc(C)c1F [Compound 20, (S)-2-(4-fluoro-3,5-dimethylbenzyl)-6-((2-(5-fluoropyridin-2-yl)propan-2-yl)amino)-N-hydroxyhexanamide]	0.19
Cc1cc(C[C@H](CCCCN[C@@H](c2ccc(F)cn2)C(C)C)C(=O)NO)cc(C)c1F [Compound 21, (S)-2-(4-fluoro-3,5-dimethylbenzyl)-6-(((R)-1-(5-fluoropyridin-2-yl)-2-methylpropyl)amino)-N-hydroxyhexanamide]	0.11
Cc1cc(C[C@H](CCCCN[C@@H](c2ccc(Cl)cn2)C(C)C)C(=O)NO)cc(C)c1F [Compound 22, (S)-6-(((R)-1-(5-chloropyridin-2-yl)-2-methylpropyl)amino)-2-(4-fluoro-3,5-dimethylbenzyl)-N-hydroxyhexanamide]	0.17
Cc1cc(C[C@H](CCCCN[C@@H](c2ncc(F)cc2F)C(C)C)C(=O)NO)cc(C)c1F [Compound 23, (S)-6-(((R)-1-(3,5-difluoropyridin-2-yl)-2-methylpropyl)amino)-2-(4-fluoro-3,5-dimethylbenzyl)-N-hydroxyhexanamide]	0.25
Cc1cc(C[C@H](CCCCN[C@@H](C)c2ccc(F)cn2)C(=O)NO)cc(C)c1F [Compound 24, (S)-2-(4-fluoro-3,5-dimethylbenzyl)-6-(((S)-1-(5-fluoropyridin-2-yl)ethyl)amino)-N-hydroxyhexanamide]	0.44
CC[C@@H](NCCCC[C@@H](Cc1cc(C)c(F)c(C)c1)C(=O)NO)c1ncc(F)cc1F [Compound 25, (S)-6-(((R)-1-(3,5-difluoropyridin-2-yl)propyl)amino)-2-(4-fluoro-3,5-dimethylbenzyl)-N-hydroxyhexanamide]	0.12
Cc1cc(C[C@H](CCCCN[C@H](c2ccc(F)cn2)C(C)C)C(=O)NO)cc(C)c1F [Compound 26, (S)-2-(4-fluoro-3,5-dimethylbenzyl)-6-(((S)-1-(5-fluoropyridin-2-yl)-2-methylpropyl)amino)-N-hydroxyhexanamide]	0.87
Cc1cc(C[C@H](CCCCN[C@H](C)c2ccc(Cl)cn2)C(=O)NO)cc(C)c1F [Compound 27, (S)-6-(((R)-1-(5-chloropyridin-2-yl)ethyl)amino)-2-(4-fluoro-3,5-dimethylbenzyl)-N-hydroxyhexanamide]	0.08
CC[C@@H](NCCCC[C@@H](Cc1cc(C)c(F)c(C)c1)C(=O)NO)c1ccc(F)cn1 [Compound 28, (S)-2-(4-fluoro-3,5-dimethylbenzyl)-6-(((R)-1-(5-fluoropyridin-2-yl)propyl)amino)-N-hydroxyhexanamide]	0.08
Cc1cc(C[C@H](CCCCN(C)Cc2ccc(F)cn2)C(=O)NO)cc(Cl)c1F [Compound 29, (S)-2-(3-chloro-4-fluoro-5-methylbenzyl)-6-(((5-fluoropyridin-2-yl)methyl)(methyl)amino)-N-hydroxyhexanamide]	1.1
Cc1cc(C[C@H](CCCCN[C@@H](c2ccc(F)cn2)C(C)C)C(=O)NO)cc(Cl)c1F [Compound 30, (S)-2-(3-chloro-4-fluoro-5-methylbenzyl)-6-(((R)-1-(5-fluoropyridin-2-yl)-2-methylpropyl)amino)-N-hydroxyhexanamide]	0.25
Cc1cc(C[C@H](CCCCN[C@@H](c2ccc(Cl)cn2)C(C)C)C(=O)NO)cc(Cl)c1F [Compound 31, (S)-2-(3-chloro-4-fluoro-5-methylbenzyl)-6-(((R)-1-(5-chloropyridin-2-yl)-2-methylpropyl)amino)-N-hydroxyhexanamide]	0.26
COc1ccc(CN(C)CCCC[C@@H](Cc2cc(C)c(F)c(Cl)c2)C(=O)NO)nc1 [Compound 32, (S)-2-(3-chloro-4-fluoro-5-methylbenzyl)-N-hydroxy-6-(((5-methoxypyridin-2-yl)methyl)(methyl)amino)hexanamide]	1.5
CN(CCCC[C@@H](Cc1cc(Cl)c(F)c(Cl)c1)C(=O)NO)Cc1ccc(F)cn1 [Compound 33, (S)-2-(3,5-dichloro-4-fluorobenzyl)-6-(((5-fluoropyridin-2-yl)methyl)(methyl)amino)-N-hydroxyhexanamide]	1.6
CC(C)[C@@H](NCCCC[C@@H](Cc1cc(Cl)c(F)c(Cl)c1)C(=O)NO)c1ccc(F)cn1 [Compound 34, (S)-2-(3,5-dichloro-4-fluorobenzyl)-6-(((R)-1-(5-fluoropyridin-2-yl)-2-methylpropyl)amino)-N-hydroxyhexanamide]	0.6
